The source of these data is US20230346820A1, “METHODS AND COMPOSITIONS FOR THE TREATMENT OF SARS-COV-2” (priority 2020, published 2023).

A short description of data set [1]: in vitro. Particulars: human.
The subject of data set [2] is SARS-CoV-2. As to the kind of experiment: Checkerboard synergy study with remdesivir (ZIP model, synergyfinder). It counts as cell-based.
For data set [3] the following is noted: human, oral; cited from earlier work.
Data set [4] relates to SARS-CoV-2. As to the kind of experiment: microbe, parasite or virus in culture.
Data set [5] relates to SARS-CoV-2.
Data set [6] has as its system HeLa-ACE2 cells. As to the kind of experiment: cells. It counts as cell-based, human. Conditions: Homo sapiens, HeLa-ACE2, read-out: HeLa-ACE-2 EC50 [μM] (Geomeans, n ≥ 2).
The subject of data set [7] is SARS-CoV-2. This is another data set of the same source.
Data set [8] can be described thus: in vitro. Conditions: human. This is another data set of the same source.
Data set [9] relates to SARS-CoV-2. As to the kind of experiment: microbe, parasite or virus in culture. Conditions: Severe acute respiratory syndrome coronavirus 2, Calu-3, 48 h, read-out: Calu-3 CoV-2 EC50 [μM].
Where [10] appears, read: CC50 [μM] (Geomeans, n ≥ 2 except where indicated: *n = 1).
[11] abbreviates: Table 1, ZIP model, δ>10 synergy, δ<−10 antagonism, between additive.
The mark [12] stands for this setting: Severe acute respiratory syndrome coronavirus 2, HeLa-ACE2, 24 h, read-out: CoV-2 EC50 [μM] (Geomeans, n ≥ 2).
The mark [13] stands for this setting: Severe acute respiratory syndrome coronavirus 2, HeLa-ACE2, read-out: SARS CoV-2 EC50 (μM).

Counter-ions that a name gives are not always drawn. Like-named read-outs stand apart in the source and are kept apart here.

A word on the Cmax: it is the highest concentration seen after dosing. In general, EC50 refers to the concentration at which the effect is half-maximal. `C=CC(=O)Nc1cc(Nc2nccc(-c3cn(C)c4ccccc34)n2)c(OC)cc1N(C)CCN(C)C` [Osimertinib]: the CC50 in [1] (setting [10]) and in [1] (Uninfected HeLa-ACE2 CC50 (μM)) was greater than 18.1 µM each time. In addition, the “Synergy score with remdesivir (δ)” value in data set [2] (setting [11]) and in data set [2] (Table 3) was −0.722 throughout. Also, the Cmax in [3] was roughly 1500 nM. For the same compound, the t1/2 in [3] was ~42 h (human, oral)(33, 34). In addition, the EC50 in [4] (setting [12]) and in [4] (setting [13]) was 0.962 µM in each case. For the same compound, the “HeLa-ACE2 CC50/CoV-2 EC50” value in [5] is greater than 18.79.
With `CC(C)Oc1ccc(-c2nc(-c3cccc4c3CC[C@@H]4NCCO)no2)cc1C#N` [Ozanimod], the CC50 in data set [1] (setting [10]) and in [1] (Uninfected HeLa-ACE2 CC50 (μM)) was greater than 14.7 µM each time. Also, the “Synergy score with remdesivir (δ)” value in data set [2] (Table 3) was −4.62. Besides, the Cmax in [3] is roughly 1200 nM. Moreover, the t1/2 in [3] was ~21 h (human, oral)(24). The half-maximal effective concentration (EC50) in data set [4] (setting [12]) and in data set [4] (setting [13]) was 2.63 µM throughout. In addition, the “HeLa-ACE2 CC50/CoV-2 EC50” value in data set [5] was greater than 5.60.
For the compound `Nc1cc(OCC2CC2)c(C(=O)NC2CN3CCC2CC3)cc1Cl` (centres unmarked) [Pancopride], the CC50 in data set [1] (setting [10]) and in data set [1] (Uninfected HeLa-ACE2 CC50 (μM)) was greater than 37.3 µM each time. In addition, the “Synergy score with remdesivir (δ)” value is given as 0.648 in data set [2] (setting [11]) and 0.65 in data set [2] (Table 3). Further, the Cmax in [3] is roughly 300 nM. For the same compound, the t1/2 in [3] is given as ~16 h (human, oral)(26). Besides, the EC50 in data set [4] (setting [12]) was greater than 8.64 µM; in data set [4] (setting [13]) it was greater than 8.64 µM; in [6], greater than 9.59 µM. Besides, in data set [5], the “HeLa-ACE2 CC50/CoV-2 EC50” value amounted to 4.32.
Take `CC(C)(C)Cn1c(N)nc2ccc(-c3[nH]c(C(C)(C)C)nc3-c3ccc(F)cc3)nc21` [Ralimetinib mesylate/LY2228820, Ralimetinib mesylate]: in data set [1] (setting [10]), the CC50 turned out to be 27.4 µM. In addition, the “Synergy score with remdesivir (δ)” value in data set [2] (setting [11]) is −0.846. Also, the “Synergy score with remdesivir (δ)” value in data set [2] (Table 3) was −0.846. In data set [3], the Cmax is roughly 5000 nM and the t1/2 is listed as ~145 h (human, oral)(28). Further, in data set [4] (setting [12]), the concentration giving a half-maximal response (EC50) is 1.87 µM. Further, in data set [5], the “HeLa-ACE2 CC50/CoV-2 EC50” value was 14.6 and the “activity in HeLa-ACE2 infection assay” value was “active”. The “activity in Calu-3 infection assay” value in [7] is listed as “active”.
In [1] (setting [10]), `COc1ccc2c(O[C@@H]3C[C@H]4C(=O)N[C@]5(C(=O)NS(=O)(=O)C6CC6)C[C@H]5/C=C\CCCCN(C)C(=O)[C@@H]4C3)cc(-c3nc(C(C)C)cs3)nc2c1C` [Simeprevir] displayed a CC50 greater than 22.2 µM. In addition, in data set [1] (Uninfected HeLa-ACE2 CC50 (μM)), the CC50 was greater than 22.2 µM. In [3], the Cmax was roughly 32000 nM and the t1/2 is ~16 h (human oral)(21, 22). For the same compound, the EC50 in data set [4] (setting [12]) is greater than 7.88 µM. Moreover, in data set [5], the “HeLa-ACE2 CC50/CoV-2 EC50” value is greater than 2.81.
In the case of `COC(=O)C1=C(C)NC(C)=C(C(=O)OC)C1c1cc([N+](=O)[O-])ccc1OCCCCNC[C@H](O)COc1ccccc1` [YM 161514], the CC50 in [1] (setting [10]) and in data set [1] (Uninfected HeLa-ACE2 CC50 (μM)) was 11.3 µM each time. Further, the “Synergy score with remdesivir (δ)” value in data set [2] (setting [11]) is on record as 0.601; in [2] (Table 3), 0.60. The EC50 in data set [4] (setting [12]) was 1.86 µM; in data set [4] (setting [13]), 1.86 µM; in data set [6], greater than 8.47 µM. Also, the “HeLa-ACE2 CC50/CoV-2 EC50” value in [5] is recorded as 6.08.
For `COc1ccc2c(c1)CN(C)CC2c1ccc(Cl)c(Cl)c1` (centres unmarked) [diclofensine], the CC50 was 10.1 µM in [1] (setting [10]) and greater than 40 µM in [1] (Uninfected HeLa-ACE2 CC50 (μM)). Besides, in data set [3], the Cmax is roughly 30 nM. For the same compound, in data set [3], the t1/2 is listed as ~15 h (human, oral)(25). In addition, the EC50 in [4] (setting [12]) was greater than 7.89 µM; in data set [4] (setting [13]), 6.06 µM; in [6] it was greater than 9.59 µM. In [5], the “HeLa-ACE2 CC50/CoV-2 EC50” value is less than 1.28.
Consider `COC(=O)C1=C(C)NC(C)=C(C(=O)OCCN2CCN(C(c3ccccc3)c3ccccc3)CC2)C1c1cccc([N+](=O)[O-])c1` (centres unmarked) [manidipine], for which the CC50 in data set [1] (setting [10]) and in data set [1] (Uninfected HeLa-ACE2 CC50 (μM)) was greater than 17.1 µM throughout. In addition, the “Synergy score with remdesivir (δ)” value in data set [2] (setting [11]) and in [2] (Table 3) was −4.727 each time. Also, the Cmax in data set [3] is roughly 10 nM. The t1/2 in [3] is reported as ~3 h (human, oral)(23). Moreover, the concentration giving a half-maximal response (EC50) in data set [4] (setting [12]) and in [4] (setting [13]) was greater than 6.89 µM throughout. The “HeLa-ACE2 CC50/CoV-2 EC50” value in [5] was greater than 2.48.
For `Cc1c(O)cccc1C(=O)N[C@@H](CSc1ccccc1)[C@H](O)CN1C[C@H]2CCCC[C@H]2C[C@H]1C(=O)NC(C)(C)C` [nelfinavir mesylate], the CC50 in [1] (setting [10]) is greater than 18 µM. The compound further displayed a CC50 in data set [1] (Uninfected HeLa-ACE2 CC50 (μM)) greater than 18 µM. The “Synergy score with remdesivir (δ)” value in data set [2] (setting [11]) is on record as −1.233. In [3], the Cmax is roughly 17000 nM and the t1/2 is on record as ~4 h (human oral)(20). Besides, the EC50 in data set [4] (setting [12]) was greater than 8.64 µM. For the same compound, in data set [5], the “HeLa-ACE2 CC50/CoV-2 EC50” value is listed as greater than 2.08.
Turning to `Cn1c(C#N)ccc1-c1ccc2c(c1)C(C)(C)OC(=S)N2` [tanaproget], the CC50 turned out to be 0.128 µM in [1] (HeLa-ACE2 Uninfected Tox CC50 [μM], Table 4, aggregated data, Geomean, n = 3) and 19.3 µM in data set [8]. Further, the EC50 in data set [4] (Severe acute respiratory syndrome coronavirus 2, HeLa-ACE2, read-out: HeLa-ACE2 CoV-2 EC50 [μM], Table 4, aggregated data, Geomean, n = 3) is 0.141 µM; in data set [9] it was 2.44 µM. Further, in data set [5] (Table 4), the “HeLa-ACE2 SI CC50/CoV-2 EC50” value was determined as 0.91. For the same compound, the “Calu3 SI CC50/CoV-2 EC50” value in [7] (Table 4) worked out at 7.99.
